Experimental data reported in ChEMBL document CHEMBL1201862, “PubChem BioAssay data set” (2004).
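Test compounds were applied to cells in 96-well plates for 48 hours at 5 doses. GI50 = concentration required for 50% inhibition of growth.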 Calls of active or inactive are those of the source. Cut-off read from the data, not from the text of the source: active = GI50 up to about 1.1 µM and inactive = higher.

Experiments:
Assay in all cases: inhibition of tumour cell growth, NCI panel, 48 h
[1] = system: HT-29
[2] = system: SR
[3] = system: A549
[4] = system: A498
[5] = system: HOP-92
[6] = system: NCI-H23
[7] = system: SNB-19
[8] = system: U-251
[9] = system: SK-MEL-2
[10] = system: HOP-62
[11] = system: T47D
[12] = system: NCI-H460
[13] = system: HCC 2998
[14] = system: MOLT-4
[15] = system: OVCAR-3
[16] = system: IGROV-1
[17] = system: SNB-75
[18] = system: CAKI-1
[19] = system: MCF7
[20] = system: RPMI-8226

For `COc1cc(S(=O)(=O)Nc2nc(-c3ccc(N4C(=O)C(CC(=O)O)SC4c4ccccc4O)cc3)cs2)ccc1Cl` (centres undefined), the GI50 [1] was 90.8 µM (inactive), the GI50 [2] was 99.8 µM (inactive) and the GI50 [3] was 32 µM (inactive). The GI50 [4] was 29.1 µM (inactive), the GI50 [5] was 31 µM (inactive) and the GI50 [6] was 22.1 µM (inactive). The GI50 [7] was > 100 µM (inactive), the GI50 [8] was 45.8 µM (inactive) and the GI50 [9] was > 100 µM (inactive). For the same compound, the GI50 [10] was 90.4 µM (inactive), the GI50 [11] was 28.1 µM (inactive) and the GI50 [12] was 82.4 µM (inactive). For the same compound, the GI50 [13] was 9.93 µM (inactive), the GI50 [14] was 49.5 µM (inactive) and the GI50 [15] was 55.7 µM (inactive). For the same compound, the GI50 [16] was 34.9 µM (inactive), the GI50 [17] was > 100 µM (inactive) and the GI50 [18] was > 100 µM (inactive). The GI50 [19] was 42.5 µM (inactive).

For `O=C1OC(C2=CC(=O)c3ccccc3C2=O)C(Cl)=C1Cl` (centres undefined), the GI50 [1] was 42 µM (inactive), the GI50 [2] was 24 µM (inactive) and the GI50 [3] was 89.5 µM (inactive). The GI50 [4] was 42.8 µM (inactive), the GI50 [5] was 47 µM (inactive) and the GI50 [6] was 24.4 µM (inactive). For the same compound, the GI50 [7] was 56.1 µM (inactive), the GI50 [8] was 28.1 µM (inactive) and the GI50 [9] was 14.1 µM (inactive). The GI50 [10] was 33.1 µM (inactive), the GI50 [20] was 19.5 µM (inactive) and the GI50 [11] was 29.1 µM (inactive). The GI50 [12] was 56.8 µM (inactive), the GI50 [13] was 25.1 µM (inactive) and the GI50 [14] was 34.4 µM (inactive). For the same compound, the GI50 [15] was 33.1 µM (inactive), the GI50 [17] was 37.2 µM (inactive) and the GI50 [18] was 67.9 µM (inactive). For the same compound, the GI50 [19] was 20.9 µM (inactive).

In the case of `C=CCC1CC(n2cc(C)c(=O)[nH]c2=O)OC1CO[Si](C)(C)C(C)(C)C` (centres undefined), the GI50 [1] is reported as 15.9 µM (inactive), the GI50 [2] is reported as 0.0925 µM (active) and the GI50 [3] is reported as 12.3 µM (inactive). For the same compound, the GI50 [4] was 19.1 µM (inactive), the GI50 [5] was 15.8 µM (inactive) and the GI50 [6] was 12.5 µM (inactive). The GI50 [7] was 16.2 µM (inactive), the GI50 [8] was 13.6 µM (inactive) and the GI50 [9] was 15.5 µM (inactive). For the same compound, the GI50 [10] was 18.3 µM (inactive), the GI50 [20] was 11.9 µM (inactive) and the GI50 [11] was 10.4 µM (inactive). The GI50 [12] was 16.5 µM (inactive), the GI50 [13] was 17.9 µM (inactive) and the GI50 [15] was 15.9 µM (inactive). For the same compound, the GI50 [16] was 11.2 µM (inactive), the GI50 [17] was 11.8 µM (inactive) and the GI50 [18] was 13.7 µM (inactive). The GI50 [19] was 11.5 µM (inactive).

With `COc1ccc(/C=C2\C[C@H]3[C@@H]4CC=C5C[C@@H](OC(C)=O)CC[C@]5(C)[C@H]4CC[C@]3(C)\C2=N\O)cc1OC` the GI50 [1] was 5.74 µM (inactive), the GI50 [2] was 9.33 µM (inactive) and the GI50 [3] was 5.12 µM (inactive). For the same compound, the GI50 [4] was 19.3 µM (inactive), the GI50 [5] was 3.89 µM (inactive) and the GI50 [6] was 29.2 µM (inactive). For the same compound, the GI50 [7] was 25 µM (inactive), the GI50 [9] was 20.8 µM (inactive) and the GI50 [10] was 31.7 µM (inactive). For the same compound, the GI50 [20] was 4.86 µM (inactive), the GI50 [11] was 5.38 µM (inactive) and the GI50 [12] was 7.03 µM (inactive). For the same compound, the GI50 [13] was 16.2 µM (inactive), the GI50 [14] was 3.6 µM (inactive) and the GI50 [15] was 24.3 µM (inactive). For the same compound, the GI50 [16] was 53.3 µM (inactive), the GI50 [17] was > 100 µM (inactive) and the GI50 [18] was 11.2 µM (inactive). The GI50 [19] was 6.3 µM (inactive).

For `c1ccc(Nc2nn3c(CCCCCCCCc4nnc5sc(Nc6ccccc6)nn45)nnc3s2)cc1`, the GI50 [1] was 21.9 µM (inactive), the GI50 [2] was 13.3 µM (inactive) and the GI50 [3] was 21.6 µM (inactive). The GI50 [4] was 36.2 µM (inactive), the GI50 [5] was 22.9 µM (inactive) and the GI50 [6] was 21.3 µM (inactive). The GI50 [7] was 26 µM (inactive), the GI50 [8] was 35.2 µM (inactive) and the GI50 [9] was 29.4 µM (inactive). The GI50 [10] was 38.5 µM (inactive), the GI50 [20] was 22.3 µM (inactive) and the GI50 [11] was 13.2 µM (inactive). For the same compound, the GI50 [12] was 32.4 µM (inactive), the GI50 [13] was 60.8 µM (inactive) and the GI50 [14] was 14.7 µM (inactive). The GI50 [15] was 23.6 µM (inactive), the GI50 [17] was 22.4 µM (inactive) and the GI50 [18] was 29 µM (inactive). The GI50 [19] was 26.4 µM (inactive).

`CCCC(=O)NC(Nc1ccc(F)cc1)(C(F)(F)F)C(F)(F)F` was tested, and the GI50 [1] was 64.3 µM (inactive), the GI50 [2] was > 100 µM (inactive) and the GI50 [3] was 16.9 µM (inactive). For the same compound, the GI50 [4] was > 100 µM (inactive), the GI50 [5] was > 100 µM (inactive) and the GI50 [6] was > 43.4 µM (inactive). The GI50 [7] was > 100 µM (inactive), the GI50 [8] was > 100 µM (inactive) and the GI50 [9] was 2.25 µM (inactive). For the same compound, the GI50 [10] was > 100 µM (inactive), the GI50 [20] was 32.2 µM (inactive) and the GI50 [11] was 7.14 µM (inactive). The GI50 [12] was 56.5 µM (inactive), the GI50 [13] was 98.6 µM (inactive) and the GI50 [14] was 7.98 µM (inactive). For the same compound, the GI50 [15] was > 100 µM (inactive), the GI50 [17] was > 100 µM (inactive) and the GI50 [18] was > 100 µM (inactive). For the same compound, the GI50 [19] was > 37.7 µM (inactive).
